This note sets out measurements from BindingDB's records for patent US20250034165 (Chia Tai Tianqing Pharmaceutical Group, 2025).

The term IC50 denotes the concentration that gives 50% inhibition.

The target in assay [1] is Epidermal growth factor receptor (Homo sapiens, UniProt P00533). Description: Inhibitory Activity for EGFR (WT) Kinase. As for the experimental part:
A 50 ng/μL EGFR (WT, Carna) stock solution was diluted with a kinase buffer (50 mM HEPES, 10 mM MgCl2, 2 mM DTT, 1 mM EGTA, 0.01% Tween 20), and 6 μL of 1.67× working solution at 0.005 ng/μL (final concentration: 0.003 ng/μL) was added to each well. Different compounds dissolved in DMSO were added to the wells using a nanoliter pipettor, resulting in the final concentrations of the compounds of 100 nM to 0.0244 nM (4-fold gradient for 7 concentrations in total), and blank control wells (without enzyme) and negative control wells (with enzyme, plus vehicle DMSO) were set, 2 replicate wells for each concentration. After enzyme was reacted with the compound or vehicle for 30 min, 5×ATP at 25 μM (final concentration: 5 μM, Sigma) prepared with a kinase buffer was mixed with 5× substrate at 0.5 μM (final concentration: 0.1 μM, ULight-poly GT, PerkinElmer) at a ratio of 1:1 (v:v), and the mixture was added to each well at 4 μL/well. After being sealed with a film, the plate was incubated at room temperature for 2 h, and then 5 μL of 4×EDTA at 40 mM (final concentration: 10 mM) was added to each well. After the plate was incubated for 5 min at room temperature, 5 μL of 4× detection reagent at 8 nM (final concentration: 2 nM, Eu-anti-phospho-tyrosine antibody, PerkinElmer) was added to each well.

Assay [2] addresses Epidermal growth factor receptor [T790M,C797S,L858R] (UniProt P00533, C797S/L858R/T790M). Description: Inhibitory Activity for EGFR (L858R/T790M/C797S) Kinase. The method, then:
(§1) A 50 ng/μL EGFR (L858R/T790M/C797S, BPS) stock solution was diluted with a kinase buffer (50 mM HEPES, 10 mM MgCl2, 2 mM DTT, 1 mM EGTA, 0.01% Tween 20), and 6 μL of 1.67× working solution at 0.00167 ng/μL (final concentration: 0.001 ng/μL) was added to each well. Different compounds dissolved in DMSO were added to wells using a nanoliter pipettor, resulting in the final concentrations of the compounds of 10 nM to 0.0024 nM (4-fold gradient, 7 concentrations in total), and blank control wells (without enzyme) and negative control wells (with enzyme, plus vehicle DMSO) were set, 2 replicate wells for each concentration. After enzyme was reacted with the compound or vehicle for 30 min, 5×ATP at 25 μM (final concentration: 5 μM, Sigma) prepared with a kinase buffer was mixed with 5× substrate at 0.5 μM (final concentration: 0.1 μM, ULight-poly GT, PerkinElmer) at a ratio of 1:1 (v:v), and the mixture was added to each well at 4 μL/well. After being sealed with a film, the plate was incubated at room temperature for 2 h, and then 5 μL of 4×EDTA at 40 mM (final concentration: 10 mM) was added to each well. After the plate was incubated for 5 min at room temperature, 5 μL of 4× detection reagent at 8 nM (final concentration: 2 nM, Eu-anti-phospho-tyrosine antibody, PerkinElmer) was added to each well. After being incubated at room temperature for 1 h, the plate was read using a PerkinElmer Envision multi-mode microplate reader (excitation: 320 nm, emission: 665 nm), and IC50 was calculated by four-parameter fitting.

For assay [3], the target named is Epidermal growth factor receptor (EGFR)(L858R)(T790M) (Homo sapiens, UniProt P00533, L858R/T790M). Description: Inhibitory Activity for EGFR (L858R/T790M) Kinase. As for the experimental part:
as §1, with “(L858R/T790M, Carna)” for “(L858R/T790M/C797S, BPS)”, “0.004175” for “0.00167”, “0.0025” for “0.001”

Structures are written as SMILES.

Chain of Epidermal growth factor receptor (P00533 whole entry): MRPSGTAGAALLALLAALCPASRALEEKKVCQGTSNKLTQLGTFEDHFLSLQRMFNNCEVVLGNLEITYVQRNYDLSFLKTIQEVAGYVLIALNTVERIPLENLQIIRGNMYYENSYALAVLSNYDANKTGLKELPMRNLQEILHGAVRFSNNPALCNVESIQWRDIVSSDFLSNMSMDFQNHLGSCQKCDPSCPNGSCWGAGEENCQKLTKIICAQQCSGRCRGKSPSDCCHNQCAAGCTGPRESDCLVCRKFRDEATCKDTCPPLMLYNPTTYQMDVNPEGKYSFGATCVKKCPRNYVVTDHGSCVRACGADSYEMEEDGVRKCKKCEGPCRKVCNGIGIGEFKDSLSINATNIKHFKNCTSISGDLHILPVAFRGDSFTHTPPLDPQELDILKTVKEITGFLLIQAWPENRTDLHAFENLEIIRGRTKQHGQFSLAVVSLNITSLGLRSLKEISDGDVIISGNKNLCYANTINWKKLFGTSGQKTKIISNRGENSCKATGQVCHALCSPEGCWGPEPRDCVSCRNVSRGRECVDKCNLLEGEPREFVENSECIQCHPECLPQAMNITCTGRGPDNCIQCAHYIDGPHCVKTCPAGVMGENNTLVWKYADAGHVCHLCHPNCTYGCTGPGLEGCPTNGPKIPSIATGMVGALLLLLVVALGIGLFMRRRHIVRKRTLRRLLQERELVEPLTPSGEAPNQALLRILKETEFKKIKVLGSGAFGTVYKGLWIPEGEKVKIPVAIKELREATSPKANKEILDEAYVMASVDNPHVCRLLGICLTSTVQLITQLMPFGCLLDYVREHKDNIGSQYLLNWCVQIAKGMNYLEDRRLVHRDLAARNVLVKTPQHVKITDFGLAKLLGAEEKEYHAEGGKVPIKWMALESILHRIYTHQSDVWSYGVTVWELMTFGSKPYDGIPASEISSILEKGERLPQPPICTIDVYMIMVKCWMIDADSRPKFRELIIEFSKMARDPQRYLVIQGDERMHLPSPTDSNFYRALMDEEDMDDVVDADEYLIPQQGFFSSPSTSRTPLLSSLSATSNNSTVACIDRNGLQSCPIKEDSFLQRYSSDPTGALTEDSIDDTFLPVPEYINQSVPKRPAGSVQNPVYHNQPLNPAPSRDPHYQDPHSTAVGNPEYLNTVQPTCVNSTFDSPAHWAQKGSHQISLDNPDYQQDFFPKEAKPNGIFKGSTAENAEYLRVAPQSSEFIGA
Chain of Epidermal growth factor receptor [T790M,C797S,L858R] (P00533 25-1210 T790M/C797S/L858R limits assumed): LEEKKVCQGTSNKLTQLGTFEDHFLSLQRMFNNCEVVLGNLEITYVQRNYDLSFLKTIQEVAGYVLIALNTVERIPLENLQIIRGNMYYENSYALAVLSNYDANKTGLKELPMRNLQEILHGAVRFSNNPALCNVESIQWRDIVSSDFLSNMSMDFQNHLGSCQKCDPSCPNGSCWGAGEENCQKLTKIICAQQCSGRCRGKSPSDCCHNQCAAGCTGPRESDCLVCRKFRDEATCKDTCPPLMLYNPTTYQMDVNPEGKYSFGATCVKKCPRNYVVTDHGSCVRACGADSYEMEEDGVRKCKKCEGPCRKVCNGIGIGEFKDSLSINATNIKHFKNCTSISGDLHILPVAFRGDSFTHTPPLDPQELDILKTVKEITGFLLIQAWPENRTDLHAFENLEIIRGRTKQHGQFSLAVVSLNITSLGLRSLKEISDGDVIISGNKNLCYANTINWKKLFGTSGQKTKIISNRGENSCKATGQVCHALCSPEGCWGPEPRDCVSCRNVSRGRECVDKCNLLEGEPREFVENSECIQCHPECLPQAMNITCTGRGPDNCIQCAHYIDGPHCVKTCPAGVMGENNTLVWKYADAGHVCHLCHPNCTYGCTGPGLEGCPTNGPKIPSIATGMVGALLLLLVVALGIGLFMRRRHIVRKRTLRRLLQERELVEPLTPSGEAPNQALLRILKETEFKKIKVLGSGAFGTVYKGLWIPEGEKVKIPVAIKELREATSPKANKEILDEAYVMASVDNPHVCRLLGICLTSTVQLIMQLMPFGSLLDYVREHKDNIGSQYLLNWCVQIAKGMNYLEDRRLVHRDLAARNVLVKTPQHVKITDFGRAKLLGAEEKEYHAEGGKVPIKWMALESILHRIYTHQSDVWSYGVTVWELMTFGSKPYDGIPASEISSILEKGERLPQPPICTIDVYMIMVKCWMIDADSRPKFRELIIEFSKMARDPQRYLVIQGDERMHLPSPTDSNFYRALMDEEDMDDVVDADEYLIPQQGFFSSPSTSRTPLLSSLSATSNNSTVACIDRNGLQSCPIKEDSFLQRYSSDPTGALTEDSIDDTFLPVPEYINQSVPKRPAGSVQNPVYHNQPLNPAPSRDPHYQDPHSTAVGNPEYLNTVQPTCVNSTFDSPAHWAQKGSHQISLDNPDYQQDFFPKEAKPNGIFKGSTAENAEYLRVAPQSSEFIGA
Chain of Epidermal growth factor receptor (EGFR)(L858R)(T790M) (P00533 25-1210 T790M/L858R limits assumed): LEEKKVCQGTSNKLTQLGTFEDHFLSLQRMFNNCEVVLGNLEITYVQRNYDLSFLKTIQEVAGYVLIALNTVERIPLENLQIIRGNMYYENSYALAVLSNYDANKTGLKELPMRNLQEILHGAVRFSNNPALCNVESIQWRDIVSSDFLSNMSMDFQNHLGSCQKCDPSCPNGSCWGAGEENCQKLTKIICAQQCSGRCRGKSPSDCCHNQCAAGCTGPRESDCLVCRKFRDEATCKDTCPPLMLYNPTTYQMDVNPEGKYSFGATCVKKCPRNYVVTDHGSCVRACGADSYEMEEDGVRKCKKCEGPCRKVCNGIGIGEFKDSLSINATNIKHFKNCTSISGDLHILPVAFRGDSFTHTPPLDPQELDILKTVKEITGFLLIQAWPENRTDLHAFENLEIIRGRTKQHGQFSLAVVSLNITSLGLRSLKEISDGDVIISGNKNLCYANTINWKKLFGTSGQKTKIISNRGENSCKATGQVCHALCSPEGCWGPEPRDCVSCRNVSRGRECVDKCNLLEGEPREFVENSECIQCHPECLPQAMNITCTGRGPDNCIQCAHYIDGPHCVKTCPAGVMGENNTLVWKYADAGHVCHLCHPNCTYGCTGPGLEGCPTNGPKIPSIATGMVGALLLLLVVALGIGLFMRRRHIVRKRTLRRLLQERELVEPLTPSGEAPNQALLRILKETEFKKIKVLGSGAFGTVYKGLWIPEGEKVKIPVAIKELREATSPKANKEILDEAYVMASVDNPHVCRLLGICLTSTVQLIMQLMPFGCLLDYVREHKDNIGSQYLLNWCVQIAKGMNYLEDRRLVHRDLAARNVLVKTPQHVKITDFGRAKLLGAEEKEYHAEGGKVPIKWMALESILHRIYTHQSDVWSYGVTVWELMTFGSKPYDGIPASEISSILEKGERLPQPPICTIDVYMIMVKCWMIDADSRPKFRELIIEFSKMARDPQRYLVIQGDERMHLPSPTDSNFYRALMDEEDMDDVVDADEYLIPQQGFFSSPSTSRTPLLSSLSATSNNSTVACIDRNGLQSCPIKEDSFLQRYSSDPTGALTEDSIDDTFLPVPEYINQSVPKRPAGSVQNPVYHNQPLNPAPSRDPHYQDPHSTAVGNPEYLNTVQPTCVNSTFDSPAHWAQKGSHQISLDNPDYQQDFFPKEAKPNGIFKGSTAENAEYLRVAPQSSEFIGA

For `CCN1CCC(Nc2ccc3c(c2)N2C[C@H](C4CC4)CCCOc4c(cnn4C)-c4cc(cc(C)n4)C(=O)/N=C/2N3)CC1` [US20250034165, Example 55], the concentration for half-maximal inhibition (IC50) in assay [1] was 0.5 nM; in assay [2], 0.022 nM; in assay [3], 0.017 nM.

For `Cc1cc2cc(n1)-c1cnn(C)c1OCCC[C@@H](C1CC1)CN1/C(=N/C2=O)Nc2cc(NC3(C)COC3)ccc21` [US20250034165, Example 29], the values for the IC50 in assay [1], in assay [2] and in assay [3] were 1.4 nM, 0.021 nM and 0.019 nM, respectively.

On to `Cc1cc2cc(n1)-c1cnn(C)c1OCCC[C@@H](C1CC1)CN1/C(=N/C2=O)Nc2cc(NCC3COC3)ccc21` [US20250034165, Example 36], for which the concentration for half-maximal inhibition (IC50) in assay [1] amounted to 1.5 nM; in assay [2], 0.035 nM; in assay [3] it was 0.033 nM.

With `Cc1cc2cc(n1)-c1cnn(C)c1OCCC[C@@H](C1CC1)CN1/C(=N/C2=O)Nc2cc(NC3COC3(C)C)ccc21` (stereo partly drawn) [US20250034165, Example 30], the values for the IC50 in assay [1], in assay [2] and in assay [3] were 2.8 nM, 0.12 nM and 0.13 nM, respectively.

As for `Cc1cc2cc(n1)-c1cnn(C)c1OCCC[C@@H](C1CC1)CN1/C(=N/C2=O)Nc2ccc(NCCCN3CCCCC3)cc21` [US20250034165, Example 80], the IC50 in assay [1] amounted to 0.56 nM; in assay [2], 0.019 nM; in assay [3], 0.031 nM.

In the case of `Cc1cc2cc(n1)-c1cnn(C3CC3)c1OCCC[C@@H](C)CN1/C(=N/C2=O)Nc2ccc(NCCN(C)C)cc21` [US20250034165, Example 17], the 50% inhibitory concentration (IC50) amounted to 0.7 nM in assay [1], 0.008 nM in assay [2] and 0.011 nM in assay [3].

For the compound `Cc1cc2cc(n1)-c1cnn(C)c1OCCC[C@@H](C1CC1)CN1/C(=N/C2=O)Nc2cc(NC3C(C)(C)OC3(C)C)ccc21` [US20250034165, Example 31], the results for the IC50 in assay [1], in assay [2] and in assay [3] were 2.2 nM, 0.042 nM and 0.038 nM, respectively.

Turning to `Cc1cc2cc(n1)-c1cnn(C)c1OCCC[C@@H](C1CC1)CN1/C(=N/C2=O)Nc2ccc(NC3CCCC3)cc21` [US20250034165, Example 87], the values for the IC50 in assay [1], in assay [2] and in assay [3] were 13 nM, 0.226 nM and 0.042 nM, respectively.

With `Cc1cc2cc(n1)-c1cnn(C)c1OCCC[C@@H](C1CC1)CN1/C(=N/C2=O)Nc2cc(N(C)C3COC3)ccc21` [US20250034165, Example 41], the figures for the IC50 in assay [1], in assay [2] and in assay [3] were 1.1 nM, 0.021 nM and 0.018 nM, respectively.

Turning to `Cc1cc2cc(n1)-c1cnn(C)c1OCCC[C@@H](C1CC1)CN1/C(=N/C2=O)Nc2cc(NCCCN3CCCC3)ccc21` [US20250034165, Example 70], the IC50 in assay [1] was 0.99 nM; in assay [2], 0.029 nM; in assay [3], 0.015 nM.

`Cc1cc2cc(n1)-c1cnn(C)c1OCCC[C@@H](C1CC1)CN1/C(=N/C2=O)Nc2cc(NCCCN(C)C)ccc21` [US20250034165, Example 44]: the IC50 stood at 0.36 nM in assay [1], 0.007 nM in assay [2] and 0.01 nM in assay [3].

As for `Cc1cc2cc(n1)-c1cnn(C)c1OCCC[C@@H](C1CC1)CN1/C(=N/C2=O)Nc2cc(NCC3(C)COC3)ccc21` [US20250034165, Example 40], the half-maximal inhibitory concentration (IC50) in assay [1] came to 1.6 nM; in assay [2] it was 0.03 nM; in assay [3] it was 0.027 nM.

As for `Cc1cc2cc(n1)-c1cnn(C)c1OCCC[C@@H](C1CC1)CN1/C(=N/C2=O)Nc2cc(NC3CCC3)ccc21` [US20250034165, Example 79], the IC50 in assay [1] came out at 6.2 nM; in assay [2], 0.123 nM; in assay [3] it was 0.007 nM.

Turning to `Cc1cc2cc(n1)-c1cnn(C3CC3)c1OCCC[C@@H](C)CN1/C(=N/C2=O)Nc2cc(NCCN3CCOCC3)ccc21` [US20250034165, Example 5], the values for the concentration for half-maximal inhibition (IC50) in assay [1] and in assay [3] were 3.1 nM and 0.091 nM, respectively.

As to `Cc1cc2cc(n1)-c1cnn(C3CC3)c1OCCC[C@@H](C)CN1/C(=N/C2=O)Nc2cc(NC[C@H]3COCCO3)ccc21` [US20250034165, Example 14], the values for the half-inhibitory concentration (IC50) in assay [1] and in assay [3] were 4 nM and 0.11 nM, respectively.
